Source: patent US20160009769A1, “PROCESSES FOR ISOLATING SALICYCLIC ACID RECEPTORS” (NEOPRO LABS, LLC, priority 2013, published 2016)

Experiments:
SARP [1] = experiment: Dynamic light scattering (DLS) of SARP micelles/gel in water; type: biochemical, Sauromatum; conditions: for micelle size after 20 min: 20 min after addition to 0.1 pM SARP in water; for micelle size upon addition: added to 0.1 pM SARP in water
Procedure: Organized droplets are seen under the light microscope when SARP solution is spread on a glass slide. Upon addition of DTT or mercaptoethanol the micelle size reduces to ˜300 nm, and after 20 min, the size increases back to ˜800 nm. […] The swelling and shrinking were discontinuous. Addition of 10 μM ATP stops the oscillation for ˜30 min. and then it is resumed at the same kinetics.
FIG. 11. SARP was purified from D-day appendices using RP-HPLC-ESI-MS. Purified SARP was solubilized in distilled water and analyzed using DLS. […] T, period.
Upon addition of water to the dry protein at a final concentration of 0.1 pM, micelles formed with a uniform size of ˜800 nm (FIG. 5). Upon addition of DTT or β-mercaptoethanol the micelle size reduced to ˜300 nm, and after 20 min, the size increased back to ˜800 nm. […] Addition of 10 μM ATP stopped the oscillation for ˜30 min. and then it resumed with the same kinetics.

SARP [2] = experiment: UV spectra of SARP in the presence of ligands; type: biochemical; conditions: 1 pM SARP
Procedure: FIG. 14. UV spectra of SAR in the presence of 2,6-DHBA. Freshly dissolved SAR was incubated with 2,6-DHBA and samples were taken for spectral analysis at the same time when the effect of SA on SAR was determined. The data present acquired spectra after baseline subtraction of each compound added to SAR. Every 3 min. after the addition of SAR a spectrum was recorded. A, The first 6 spectra were downward relative to the baseline (solid line). The following spectra were upward (broken line). (ME, β-mercaptoethanol).
FIG. 15. UV spectra of SAR in the presence of GTP, SA, and ATP. Freshly dissolved SARP was incubated with GTP and samples were taken for spectral analysis. Later, ME and SA were added to the sample, and finally ATP was added to the sample. The data present acquired spectra after baseline subtraction of each compound added to SARP. […] (ME, β-mercaptoethanol).
Thus, according to certain related embodiments, UV absorbance spectra of SARP may fluctuate over time when absorbance measurements are collected over a range of wavelengths and at a plurality of time points, if a salicylate-related compound is present or, under other chemical environments as described below. […] In certain preferred embodiments the change may be detected at wavelengths from (inclusively) 190 nm to 280 nm, where it will be appreciated that selection of a suitable wavelength may vary as a function of several factors including protein concentration, solution composition (e.g., absorbance properties of buffers, salts, etc.), instrument sensitivity, and other related attributes of a spectroscopic configuration.

Sauromatum appendix = conditions: cited from earlier work; for triggering of heat production: S. guttatum
SARP [3] = experiment: ESI-MS charge state distribution (conformation) of SARP from Sauromatum appendix after treatment with salicylates; set-up: species or system Sauromatum guttatum
Excerpt: It is an aspect of the present invention to provide a method of detection and characterization of SARP using RP-HPLC/ESI-MS. This is accomplished using on-line splitting of 5 to 10% of the effluent from the UV detector to a Micromass Quattro II tandem quadrupole MS fitted with an ESI source (Waters Inc.) via a variable splitter allowing manual fraction collection. This instrument is operated in a positive ESI mode at a probe tip voltage of 3.6 kV and a cone voltage of 45 V. The source and nebulizer temperatures are maintained at 150 and 400° C., respectively, using N2 as both nebulizing and bath gas. The instrument is calibrated using water clusters over the range of 100-2400 Da with data acquisition is carried out from m/z 500 to 2000 in the continuum-scanning mode at 450 Da sec^1. Instrument tuning, mass calibration, data acquisition, processing and display are accomplished using MassLynx™ and MaxEnt™ software (Waters Inc.). This procedure provided a protein molecular mass with an accuracy of ˜0.1%.
FIG. 13. […] The ESI-MS spectra is different that that of ASA and SA. It is more expanded, lower m/z values.
Monomeric SARP undergoes a large-scale conformation transition from one state to another in the Sauromatum appendix during development. […] The concentration of SA in the appendix tissue is ˜1 μg/g fresh wt^4, and it is equivalent to ˜7 μM, within the range of this experiment.

SARP [4] = experiment: Reduction of tetrazolium salts by SARP in the presence of pyridine; type: biochemical; conditions: tetrazolium salt 4 μM, pyridine 30%, 5 min at room temperature; mean of two determinations
Excerpt: Additionally and as described herein, SARPs are capable of unidirectionally transferring one or two electrons to an electron acceptor such as 3-(4,5-dimethyl thiazol-2-yl-(2,5-diphenyl) tetrazolium bromide (MTT), nitro blue tetrazolium (NBT) or neotetrazolium chloride (Neo-NBT), or to ferricytochrome c.

Human SARP = experiment: ESI-MS conformation of SARP purified from SK-N-SH cells treated with SA; type: cell-based; conditions: SK-N-SH cells treated with 10 μM
Excerpt: The charge state distribution (CSD) of the human SARP is identical to its plant counterpart from the Sauromatum appendix during heat-production. […] This regulatory activity behaves as a metabolic switch that switching on and off heat-production. SARP can be a metabolic switch in the cytoplasm and mitochondria. […] However, if SA level fluctuates, SARP can be either in state B (compact) or state A (extanded) and consequently, can trigger oscillatory thermogenicity. In a more complex model, the cytoplasmic and the mitochondrial switch will have to be to be in state B. There are four possibilities for the output for both switches. When both switches are in states B, a singular event of heat-production occurs. Other options are cytoplasmic SARP in state A and mitochondrial SARP in either state A or B. Or, cytoplasmic SARP in state B and mitochondrial SARP in state A.
FIG. 16. Purification of SARP from SK-N-SH cells using perfusion chromatography. SARP was purified using RP-HPLC/ESI-MS. TIC chromatogram with solvent gradient overlay (A). Ion current chromatograms of m/z 1139 (B) and 1178, (C) corresponding to [M+30H]^30+ and […] charge states of the protein. Solvent A is 0.05% TFA in aqueous solution and solvent B is 0.05% aqueous TFA in ACN:IP at a ratio 2:1.
FIG. 17. Electrospray ionization mass spectrua of SARP from the SK-N-SH cells and Sauromatum appendix. […]

SARP [5] = experiment: Effect of SA on the levels of SARP in the Sauromatum appendix; set-up: species or system Sauromatum guttatum; conditions: D-1 appendix placed in 10 μM SA, protein extracted next morning; control in water 160
Procedure: In certain embodiments SARP is isolated using organic solutions. Tissues are ground n a juicer grinder in an organic extraction solution containing 50% IP, 2 mM β-mercaptoethanol, 0.5 mM EDTA, 5 mM butylated hydroxy-toluene, 0.1% tocopherol acetate, 0.1% polyvinylpoly-pyrrolidone (insoluble, Sigma-Aldrich Corp.) in 40 mM imidazole/HCl buffer, pH 7.0, at a weight/volume ratio of 1 g of tissue per 5 ml of extraction solution. The extract is centrifuged at 15,000 g for 10 min and the pellet is discarded. A strong cationic resin (DOWEX X-50, Sigma-Aldrich Corp.) is added to the supernatant (30 mg resin per ml) and stirred for 2.5 h at 4° C. The mixture is then centrifuged at 30 g for 2 min, and the supernatant is discard. The Dowex resin is washed several times, first with the extraction solution and finally with distilled water until a clear wash is obtained. Subsequently, the resin is again washed 2 times with 0.15 M phosphate buffer, pH 7.0. […] The protein solution is dialyzed using a 12-14 kDa cut-off dialysis bag against 3 L of distilled water at 4° C., the water is changed twice during 24 h. The content of the dialysis bag is removed and centrifuged at 10,000 g for 15 min. The pellet is used for SARP purification.
In certain embodiments SARP is purified using a reversed-phase high-performance liquid chromatography (RP-HPLC) on-line to elecrosray ionization-mass spectromer (ESI-MS). […]

[6] = higher concentrations, 100 and 200 μM

O[C@H](CS)[C@H](O)CS (racemic) [DTT, dithiothreitol]
micelle size after 20 min (SARP [1]): ~800 nm
micelle size upon addition (SARP [1]): ~300 nm

O=C(O)c1c(O)cccc1O [2,6-DHBA, 2,6-dihydroxybenzoic acid]
effect on UV spectrum of SARP (SARP [2]; incubation with NADH): did not exert the same effect
triggering of heat production (Sauromatum appendix): can also trigger heat production
ESI-MS spectra of SARP compared with ASA and SA (SARP [3]; D-2 and D-3 appendix sections incubated overnight in 100 μM): more expanded
conformational state of SARP (SARP [3]; [6]): conformations that are more extended than state A

O=C(O)c1ccc(O)c(O)c1 [3,4-DHBA, 3,4-dihydroxybenzoic acid]
effect on UV spectrum of SARP (SARP [2]; incubation with NADH): did not exert the same effect

CC(=O)Oc1ccccc1C(=O)O [ASA, aspirin]
triggering of heat production (Sauromatum appendix): can also trigger heat production

Nc1ncnc2c1ncn2[C@@H]1O[C@H](COP(=O)(O)OP(=O)(O)OP(=O)(O)O)[C@@H](O)[C@H]1O [ATP]
time the oscillation is stopped (SARP [1]; 10 μM added to oscillating SARP gel): ~30 min

Cc1nc(-[n+]2nc(-c3ccccc3)nn2-c2ccccc2)sc1C.[Br-] [MTT]
O.D.530 (SARP [4]): 0.17

COc1cc(-c2ccc(-n3nc(-c4ccccc4)n[n+]3-c3ccc([N+](=O)[O-])cc3)c(OC)c2)ccc1-n1nc(-c2ccccc2)n[n+]1-c1ccc([N+](=O)[O-])cc1 [NBT, nitro blue tetrazolium]
O.D.530 (SARP [4]): 0.14

c1ccc(-c2nn(-c3ccccc3)[n+](-c3ccc(-c4ccc(-[n+]5nc(-c6ccccc6)nn5-c5ccccc5)cc4)cc3)n2)cc1 [NeoT, neotetrazolium chloride]
O.D.530 (SARP [4]): 0.06

O=C(O)c1ccccc1O [SA, salicylic acid]
effect on UV spectrum of SARP (SARP [2]; incubation of SA and GTP and ATP): appearance of new bands from 197 to 230
effect on UV spectrum of SARP (SARP [2]; incubation with NADH): a shift in a band from 197 to 230
temperature rise of appendix section (Sauromatum appendix; added on D-1 morning, the next morning, untreated section stays at ambient temperature): up to 32 °C
conformational state of SARP (SARP [3]; 10 μM applied to pre D-day appendices): induced a transition from state A in which SA undetectable in the tissue to state B
conformational state of SARP (SARP [3]; [6]): conformations that are more extended than state A
conformation of human SARP (Human SARP): a shift to a much more compact conformation
SARP (ng/g fresh wt.) (SARP [5]): 30 ng/g fresh wt.
effect on micelle size (SARP [1]; 1 pM, molar ratio [SARP]/[SA]<0.1): immediately decreased the micelle size
period of gel expansion/shrinking oscillation (SARP [1]; after addition of 1 pM SA): 4 to 5 min

OCCS [β-mercaptoethanol]
micelle size after 20 min (SARP [1]): ~800 nm
micelle size upon addition (SARP [1]): ~300 nm
